Data published in PubChem BioAssay (NCI).
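In this assay, cells in 96-well plates receive the compound at five concentrations for 48 hours. Endpoints are linearly interpolated between the surrounding concentrations. The concentration for 50% growth inhibition is given as GI50. The concentration for full growth arrest is given as TGI.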

What was measured:
Assay in all cases: inhibition of tumour cell growth, NCI panel, 48 h
[1] = tested on: HT29 colon
[2] = tested on: NCI-H226 lung
[3] = tested on: NCI-H23 lung
[4] = tested on: SF-295 CNS
[5] = tested on: SK-MEL-28 melanoma
[6] = tested on: SK-OV-3 ovarian
[7] = tested on: SN12C renal
[8] = tested on: SW-620 colon
[9] = tested on: TK-10 renal
[10] = tested on: UO-31 renal

Row | Compound | GI50 [1] | TGI [1] | GI50 [2] [µM] | TGI [2] | GI50 [3] | TGI [3] | GI50 [4] | TGI [4] | GI50 [5] | TGI [5] | GI50 [6] | TGI [6] | GI50 [7] | TGI [7] | GI50 [8] [µM] | TGI [8] | GI50 [9] | TGI [9] | GI50 [10] | TGI [10]
1 | Nc1ccn(C2OC(CO)C(O)C2F)c(=O)n1 (stereo not drawn) | > 5000 µM | > 5000 µM | > 5000 | > 5000 µM | > 5000 µM | > 5000 µM | > 5000 µM | > 5000 µM | > 5000 µM | > 5000 µM | > 5000 µM | > 5000 µM | > 5000 µM | > 5000 µM | > 5000 | > 5000 µM | > 5000 µM | > 5000 µM | > 5000 µM | > 5000 µM
2 | Cc1c2cc[nH]c(=O)c2c(C)c2c1[nH]c1cc(OCCN3CCN(C)CC3)ccc12 | 0.432 µM | 2.03 µM | 0.503 | 2.38 µM | 0.833 µM | 3.67 µM | 0.788 µM | 7.76 µM | 1.5 µM | 2.98 µM | 0.614 µM | 5.9 µM | 0.389 µM | 3.31 µM | 0.381 | 2.48 µM | 2.73 µM | 13.7 µM | 1.06 µM | 3.09 µM
3 | O=C1OC(=O)c2c1c(-c1ccccc1)cn2-c1ccc(Cl)cc1 | – | > 100 µM | – | > 100 µM | – | > 100 µM | – | > 100 µM | – | > 100 µM | – | > 100 µM | – | > 100 µM | – | > 100 µM | – | > 100 µM | – | > 100 µM
4 | Nc1nc(CCC(=O)Nc2cccc(C(F)(F)F)c2)cc(-c2cccc3ccccc23)n1 | – | > 100 µM | – | > 100 µM | – | > 100 µM | – | > 100 µM | – | > 100 µM | – | > 100 µM | – | > 100 µM | – | > 100 µM | – | > 100 µM | – | > 100 µM
5 | N#C/C(=C\c1ccccc1O)C(N)=O | – | > 100 µM | – | > 100 µM | – | > 100 µM | – | > 100 µM | – | > 100 µM | – | > 100 µM | – | > 100 µM | – | > 100 µM | – | > 100 µM | – | > 100 µM
6 | CCOc1ccc(NC(=O)CC2SC(=Nc3ccc(Cl)cc3)NC2=O)cc1 (stereo not drawn) | – | > 100 µM | – | > 100 µM | – | > 100 µM | – | > 100 µM | – | > 100 µM | – | > 100 µM | – | > 100 µM | – | > 100 µM | – | > 100 µM | – | > 100 µM
7 | CC[P+](C)(Cc1ccccc1)c1ccccc1 (stereo not drawn) | – | > 100 µM | – | > 100 µM | – | > 100 µM | – | > 100 µM | – | > 100 µM | – | > 100 µM | – | > 100 µM | – | > 100 µM | – | > 100 µM | – | > 100 µM
8 | COc1cccc2c1C(=O)c1c(O)c3c(c(O)c1C2=O)CC(O)(C(C)=O)CC3OC1CC(N)C(O)C(C)O1 (stereo not drawn) | 0.0242 µg/mL | 1.22 µg/mL | – | 0.155 µg/mL | 0.0174 µg/mL | 0.692 µg/mL | 0.0286 µg/mL | 0.168 µg/mL | 0.104 µg/mL | 0.607 µg/mL | 0.0312 µg/mL | 2.68 µg/mL | 0.0177 µg/mL | 3.98 µg/mL | – | 0.47 µg/mL | 0.273 µg/mL | 18.6 µg/mL | 0.26 µg/mL | 5.46 µg/mL
9 | Cc1cc(C)nc(NC(N)=NCCc2ccccc2)n1 | 3.02 µM | > 100 µM | 5.06 | > 100 µM | 7.02 µM | > 100 µM | 1.64 µM | 5.44 µM | 3.59 µM | 33.6 µM | 2.65 µM | 28.9 µM | 3.2 µM | 35.8 µM | 3.51 | > 100 µM | 17.6 µM | > 100 µM | 5.54 µM | 50.8 µM
